The values below are quoted from earlier work in patent publication US8986714B2, “Formulations, methods and procedures for reducing or preventing the development, or the risk of development, of neuropathology as a result of trauma” (Sapna Life Sciences Corporation, priority 2013, dated 2015).

The test system of data set [1] is rat model of neuropathic pain.
Data set [2] has as its system cat spinal dorsal horn neurons. Conditions: noxious cutaneous stimulation and substance P.
In data set [3] the test system is migraine attacks. To be noted: human, in vivo.
Data set [4] concerns chemotherapy-induced nausea and vomiting. To be noted: in conjunction with another antiemetic drug.
Data set [5] deals with chronic post-surgical pain. To be noted: perioperative administration; at two months or more after various types of surgery.
The test system of data set [6] is postherpetic neuralgia. Conditions: combined with valacyclovir; six months later.
The test system of data set [7] is spinal cord ischemia. Conditions: rabbits.
The subject of data set [8] is spinal cord compression. To be noted: in vivo.
In data set [9] the test system is immature mouse brain ischemia. Conditions: treatment of acute seizures; measured four weeks later.
The subject of data set [10] is chronic spinal cord injury. To be noted: chronic spinal cord injury patients, first two weeks.
Data set [11] has as its system chronic spinal cord injury. To be noted: stable chronic spinal cord injury patients.
Data set [12] relates to amyotrophic lateral sclerosis.
Data set [13] relates to peripheral nerve crush injury. To be noted: facial nerve and sciatic nerve injury models.
Data set [14] relates to partial sciatic nerve ligation. To be noted: compared to controls.
For data set [15], the system named is traumatic brain injury. To be noted: approximately 80 patients treated within eight hours after traumatic brain injury.

For the compound `COc1ccccc1CN[C@H]1C2CCN(CC2)[C@H]1C(c1ccccc1)c1ccccc1` [CP-96,345], the “recovery from peripheral nerve injury” value in data set [1] (animal model) is given as “promotes the recovery from peripheral nerve injury”. Also, the “responses of spinal dorsal horn neurons” value in [2] is “blocks responses of cat spinal dorsal horn neurons to noxious cutaneous stimulation and to substance P”.
Regarding `COc1ccccc1[C@H](C)C(=O)N1C[C@@H]2[C@H](C1)C(c1ccccc1)(c1ccccc1)CC[C@@]2(O)c1ccccc1OC` [RPR100893], the “treatment of migraine attacks” value in [3] was “not effective”.
With `C[C@@H](O[C@H]1OCCN(Cc2n[nH]c(=O)[nH]2)[C@H]1c1ccc(F)cc1)c1cc(C(F)(F)F)cc(C(F)(F)F)c1` [aprepitant], the “acute effects on chemotherapy-induced nausea and vomiting” value in [4] is listed as “proved to be effective when administered in conjunction with another antiemetic drug”.
As for `NCC1(CC(=O)O)CCCCC1` [gabapentin], in data set [5], the “incidence of chronic post-surgical pain” value was “reducing the incidence of chronic post-surgical pain”. Also, in data set [6], the “rate of postherpetic neuralgia” value is listed as “reduced”. Besides, in data set [7], the “outcomes of neuropathology, spinal cord ischemia” value is reported as “preventive effects”. For the same compound, the “outcomes of neuropathology, spinal cord compression” value in data set [8] is “preventive effects”. In addition, in data set [9], the brain atrophy entry was “beneficial effects on brain atrophy”.
For the compound `O=C([O-])[O-].[Li+].[Li+]` [lithium carbonate], in data set [10], the tolerability entry is “well tolerated over the first two weeks”. Further, in [11], the “effect on neurological symptoms” value is reported as “without effect on neurological symptoms”. For the same compound, in data set [12] (22 patients, over 15 months), the mortality result is on record as “prevented death of 22 patients” and the motor deterioration result is “only minimal motor deterioration”. In addition, the plasma levels in data set [12] (daily oral doses) is 400 to 800 µM.
On to `[Cl-].[Li+]` [lithium chloride], for which, in data set [13], the “expression of myelin genes” value is recorded as “stimulate the expression of myelin genes”, the functional recovery result was “accelerate functional recovery” and the myelin structure entry is given as “restore myelin structure”. In data set [14], the “nociceptive scores in response to tactile and thermal stimuli” value was “reduced the nociceptive scores”.
In the case of `CC(=O)[C@H]1CC[C@H]2[C@@H]3CCC4=CC(=O)CC[C@]4(C)[C@H]3CC[C@]12C` [progesterone], the “development of symptoms of peripheral nerve injury” value in data set [1] (early administration, intraperitoneally) is on record as “prevents the development of symptoms of peripheral nerve injury”. Also, the “tactile hypersensitivity, late treatment” value in [1] (given for 11 days, starting on day 20, versus control group) is “no difference between this experimental group and the control group”. The “tactile hypersensitivity by 30 days” value in data set [1] (started one hour after model induction, daily for the subsequent 10 days) is “no tactile hypersensitivity”. In addition, the “persistence of effect after treatment ended on day 10” value in [1] (study period ended at day 85) is reported as “persisted to the end of the study period”. In addition, the neurological outcomes in data set [15] is on record as “improved neurological outcomes”.
